Entries after “also recorded” stand apart in the source; their conditions may differ.
Test system: neutrophils and PBMCs
Assay: Radiolabeled DANBIRT uptake in isolated blood components after ozone exposure
Type: cell-based, rats
Conditions: rat blood collected 24 hours post-exposure, 1 hour incubation
Protocol: • 6 week old ApoE KO C57 black male • SPECT imaging 3 hrs and 24 hrs post tail vein Injection of ˜700 uCi (˜25.9 Mbq) of ^111In-DANBIRT • Autoradiography was performed 24 hrs PI of ^111In-DANBIRT after the last imaging time point, • We focused on 3 areas for our region of interest analysis: Aortic arch, carotids and thymus: normalized to muscle. • Whole blood incubation with ^68Ga-DANBIRT and subsequent neutrophil and PBMC isolation were performed from rat blood from animals exposed to filtered air and ozone. • 2 groups: Filtered air (n=3) and ozone (n=3) • Whole blood was collected 24 hrs post exposure • Whole Blood Separation was performed after incubation with ^68Ga-DANBIRT, obtaining 4 samples: serum, red blood cells, neutrophils and peripheral blood mononucleated cells. Staining was performed for specific morphology interpretation and smear cell line purity assessment. Results
Rats were exposed to either filtered air (FA) or ozone (1.0 ppm) for 4 hours using an OREC silent are discharge ozone generator (Osmonics, Phoenix, Ariz.); ozone concentrations were continuously monitored over the course of 4 hours. Exposures took place in a chamber without bedding to minimize ozone scrubbing and to ensure consistent nasal exposures. Whole blood was collected 24 hours post-exposure. Histopaque two-step gradient (Sigma Aldrich, 10771) neutrophil isolation protocol was performed following manufacturer's methods; modified protocol was included for PBMC isolation. Hetastarch at 5% (B. Braun, L6511) was added to whole blood before running isolation protocols. Cell samples were washed and suspended in 1% Gelatin in PBS at a pH of 7.2. Final volumes of neutrophil and PBMC samples were increased to 1 mL. Final samples were identified as serum, RBC, neutrophils and PBMCs and incubated for 1 hour with [^68Ga] Ga-DANBIRT (specific activity of 625 mCi/pM). […] Cell morphology, differentials and sample purity were assessed using a light microscope at 40× objective (Olympus BX51).

Structure (SMILES): C[C@]1(Cc2ccc(Br)cc2)C(=O)N(c2cc(Cl)cc(Cl)c2)C(=O)N1CCCCNC(=O)CN1CCN2CCN3CCN(CC1)CC(=O)[O][68Ga]([O]C(=O)C2)[O]C(=O)C3 [[^68Ga] Ga-DANBIRT]
- uptake in PBMCs post-ozone exposure: decreased uptake; also recorded: decrease
- uptake in serum post-ozone exposure: decrease
- uptake in neutrophils post 4-hour ozone exposure vs filtered air (p=0.008): increased uptake

Source: patent US10744214B2, “Method of diagnosing and/or monitoring therapy of atherosclerosis” (STC.UNM, priority 2015, dated 2020)
